Target: T1, FLK-1 receptor (Mus musculus, UniProt P35918)
T1 construct: expressed in transfected cells; host or cells: NIH3T3 C7#3 (FLK-1 infected cells)
Experiment: ELISA Assay to Measure Kinase Activity of FLK-1 Receptor in FLK-1/NIH Cells
Format: cell-based, murine
Settings: cellular, VEGF stimulated; read-out: ELISA DATA: FLK-1 - (Cell.)
From the text: For purposes of this application, although the nomenclature of the human and murine counterparts of the generic "flk-l" receptor differ, they are, in many respects, interchangeable. The murine receptor, FLK1, and its human counterpart, KDR, share a sequence homology of 93.4% within the intracellular domain. Likewise, murine FLK-1 binds human VEGF with the same affinity as mouse VEGF, and accordingly, is activated by the ligand derived from either species. Millauer et al., 1993, Cell 72:835-846; Quinn et al., 1993, Proc. Natl. Acad. Sci. USA 90:7533-7537. FLK-1 also associates with and subsequently tyrosine phosphorylates human RTK substrates (e.g., PLC-γ or p85) when coexpressed in 293 cells (human embryonal kidney fibroblasts).
Models which rely upon the FLK-1 receptor therefore are directly applicable to understanding the KDR receptor. For example, use of the murine FLK-1 receptor in methods to identify compounds which regulate the signal transduction pathway are directly applicable to the identification of compounds which may be used to regulate the human signal transduction pathway, and more specifically, activity related to the KDR receptor. Chemical compounds identified as inhibitors of KDR/FLK-1 in vitro, will be confirmed in suitable in vivo models.
ELISA Assay to Measure Kinase Activity of FLK-1 Receptor in FLK-1/NIH Cells […]

T1 sequence (P35918 20-1345): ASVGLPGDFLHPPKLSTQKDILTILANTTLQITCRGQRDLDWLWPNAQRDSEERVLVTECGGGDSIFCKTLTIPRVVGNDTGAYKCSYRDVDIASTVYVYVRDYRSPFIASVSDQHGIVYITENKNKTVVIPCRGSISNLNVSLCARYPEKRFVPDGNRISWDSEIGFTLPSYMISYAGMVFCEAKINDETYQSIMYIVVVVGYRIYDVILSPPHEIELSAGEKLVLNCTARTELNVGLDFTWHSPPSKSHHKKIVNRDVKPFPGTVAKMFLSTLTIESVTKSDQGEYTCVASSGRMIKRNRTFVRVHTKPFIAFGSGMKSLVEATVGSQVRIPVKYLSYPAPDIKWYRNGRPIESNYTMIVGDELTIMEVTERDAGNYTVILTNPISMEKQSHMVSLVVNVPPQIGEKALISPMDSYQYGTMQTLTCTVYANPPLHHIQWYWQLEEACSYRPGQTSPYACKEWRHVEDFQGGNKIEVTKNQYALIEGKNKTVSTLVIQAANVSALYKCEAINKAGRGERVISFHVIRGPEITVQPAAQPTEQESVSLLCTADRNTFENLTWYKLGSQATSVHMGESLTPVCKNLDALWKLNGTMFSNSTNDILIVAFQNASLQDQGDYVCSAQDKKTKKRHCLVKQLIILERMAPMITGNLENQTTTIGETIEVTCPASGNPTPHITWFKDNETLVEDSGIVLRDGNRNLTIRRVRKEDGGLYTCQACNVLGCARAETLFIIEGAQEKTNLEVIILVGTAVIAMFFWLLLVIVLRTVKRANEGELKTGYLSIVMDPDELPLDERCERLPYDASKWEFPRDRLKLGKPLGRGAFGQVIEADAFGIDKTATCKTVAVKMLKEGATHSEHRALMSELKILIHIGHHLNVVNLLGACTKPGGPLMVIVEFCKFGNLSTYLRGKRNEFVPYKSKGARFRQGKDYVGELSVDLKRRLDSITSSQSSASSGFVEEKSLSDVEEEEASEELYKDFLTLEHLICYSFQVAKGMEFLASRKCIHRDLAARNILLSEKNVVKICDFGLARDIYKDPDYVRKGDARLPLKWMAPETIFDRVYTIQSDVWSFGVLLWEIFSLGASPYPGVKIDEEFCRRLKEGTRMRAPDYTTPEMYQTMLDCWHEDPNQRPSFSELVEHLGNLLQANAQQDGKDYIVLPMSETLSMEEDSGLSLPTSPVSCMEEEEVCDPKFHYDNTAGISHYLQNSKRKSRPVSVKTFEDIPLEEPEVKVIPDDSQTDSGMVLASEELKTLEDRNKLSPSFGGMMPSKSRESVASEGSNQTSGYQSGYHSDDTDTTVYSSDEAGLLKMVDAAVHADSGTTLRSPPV

IC50 [nM] | SMILES
1000 | CC(C)S(=O)(=O)c1csc(NC(=O)Nc2ccc(C(C)(C)C)cc2)c1Cl [Example Z1, N-[3-Chloro-4-(isopropylsulfonyl)thien-2-yl]-N'-(4-t-butylphenyl)urea]
> 100000 | CC(C)S(=O)(=O)c1csc(NC(=O)Nc2cc(C(F)(F)F)cc(C(F)(F)F)c2)c1Cl [Example Z2, N-[3-Chloro-4-(isopropylsulfonyl)thien-2-yl]-N'-(3,5-di-trifluoromethylphenyl)urea]
